Read-outs that look alike come from different tables or passages of the source.
Assays:
Format in all cases: cell-based
[1] = test system: PD1-ss+10aa/Gaussia Luciferase; experiment: Dox-Induced PD1-ss-Gluc Assay
Procedure, shortened: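 Stable cell line carrying PD1-ss+10aa/Gaussia luciferase cDNA under T-REx (doxycycline-inducible) control, plated the day before assay. Compound dilutions in DMSO/media containing doxycycline added and incubated at 37° C, 5% CO2. Undefined stereocentres: data refer to stereoisomer mixtures.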

[2] = test system: HER3-ss+4aa/Gaussia Luciferase; experiment: Dox-Induced Her3-ss-Gluc Assay
Procedure, shortened: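 Stable T-REx cell line carrying a doxycycline-regulated HER3-ss+4aa/Gaussia luciferase insert, plated the day before assay. Compound dilutions in DMSO/media with doxycycline added, then incubated at 37° C., 5% CO2. Stereoisomer mixtures tested where stereochemistry is not drawn.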

[3] = test system: human multiple myeloma cell line NCI-H929; experiment: H929 Cell Viability Assay; conditions: 48 hr, NCI-H929 cells, Celltiter-Glo, read-out: 48 hr H929 Viability Celltiter-Glo: Mean EC50
Experimental: Plates were incubated at 37° C., 5% CO2 for 48 hours. After 48 hours, Celltiter-Glo® (Promega) was added to each well and luciferase signal was quantified using Tecan Infinite M1000 Pro for cell viability determination.
For chemical structures that include one or more stereoisomers, but are illustrated without indicating stereochemistry, the assay data refers to a mixture of stereoisomers.

[4] = test system: human multiple myeloma cell line U266B1; experiment: U266 Cell Viability Assay; conditions: U-266, 48 hr, U266B1 cells, Celltiter-Glo, read-out: 48 hr U266 Viability Celltiter-Glo: Mean EC50
Procedure, shortened: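 U266B1 myeloma cells treated with compound dilutions in DMSO/media for 48 h at 37 °C, 5% CO2. Viability read by CellTiter-Glo luminescence. Stereochemically undefined structures were tested as stereoisomer mixtures.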

[5] = test system: TNFα-FL/Gaussia Luciferase; experiment: Dox Induced TNFα-FL-Gluc Assay
Procedure, shortened: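 A stable T-REx cell line carrying doxycycline-inducible TNFα-FL/Gaussia luciferase was plated the day before assay. Compound dilutions in DMSO/media containing doxycycline were then added and incubated at 37° C, 5% CO2.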

[6] = test system: IL-2-FL/Gaussia Luciferase; experiment: Dox Induced IL2-FL-Gluc Assay
Procedure, shortened: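 Stable T-REx cell line expressing doxycycline-inducible IL-2-FL/Gaussia luciferase cDNA, plated the day before assay. Compound dilutions in DMSO/media containing doxycycline added and incubated at 37° C., 5% CO2. Unspecified stereochemistry means data refer to a stereoisomer mixture.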

[7] = 24 hr, doxycycline-induced, 293FRT/TO cells; read-out: 24 hr Dox Inducible PD1ssGluc 293FRT/TO: Mean IC50
[8] = 24 hr, doxycycline-induced, 293FRT/TO cells; read-out: 24 hr Dox Inducible Her3(ss + 4)Gluc 293FRT/TO: Mean IC50
[9] = 24 hr, doxycycline-induced, 293FRT/TO cells; read-out: 24 hr Dox Inducible TNFaFLGluc 293FRT/TO: Mean IC50
[10] = 24 hr, doxycycline-induced, 293FRT/TO cells; read-out: 24 hr Dox Inducible IL2FLGIuc 293FRT/TO: Mean IC50
[11] = read-out: 24 hr Dox Inducible PD1ssGluc 293FRT/TO: Mean IC50; 24 hr, doxycycline-induced, 293FRT/TO cells
[12] = read-out: 24 hr Dox Inducible Her3(ss + 4)Gluc 293FRT/TO: Mean IC50; 24 hr, doxycycline-induced, 293FRT/TO cells
[13] = read-out: 24 hr Dox Inducible TNFaFLGluc 293FRT/TO: Mean IC50; 24 hr, doxycycline-induced, 293FRT/TO cells
[14] = read-out: 24 hr Dox Inducible IL2FLGIuc 293FRT/TO: Mean IC50; 24 hr, doxycycline-induced, 293FRT/TO cells

Row | SMILES | IC50 [1, 7] [nM] | IC50 [2, 8] [nM] | EC50 [3] [nM] | EC50 [4] [nM] | IC50 [5, 9] [nM] | IC50 [6, 10] [nM] | IC50 [1, 11] [nM] | IC50 [2, 12] [nM] | IC50 [5, 13] [nM] | IC50 [6, 14] [nM]
1 | O=C(Nc1nc([C@@H]2CCCN2C(=O)c2ccccc2)cs1)c1cccn1Cc1ccncc1 [Compound A313] | 3860 | 7900 | > 25000 | > 25000 | > 25000 | 6360 | – | – | – | –
2 | COc1ccc(O[C@H]2C[C@H](c3csc(NC(=O)c4cccn4Cc4ccncc4)n3)C2)nc1 [Compound A314] | 47 | 145 | 9980 | 16000 | 1470 | 424 | – | – | – | –
3 | COc1ccc(N2CC(c3csc(NC(=O)c4cccn4Cc4ccncc4)n3)C2)nc1 [Compound A315] | 253 | 827 | > 25000 | > 25000 | 8030 | 1420 | – | – | – | –
4 | O=C(Nc1nc(C2CN(c3ccccc3)C2)cs1)c1cccn1Cc1ccncc1 [Compound A316] | 117 | 313 | > 25000 | > 25000 | 3170 | 762 | – | – | – | –
5 | O=C(Nc1nc([C@H]2CCCN2c2ccccn2)cs1)c1cccn1Cc1ccncc1 [Compound A317] | 25 | 64 | 2540 | > 25000 | 427 | 57 | – | – | – | –
6 | O=C(Nc1nc([C@@H]2CCCN2c2ccccc2)cs1)c1cccn1Cc1ccncc1Cl [Compound A318] | 49 | 97 | 6040 | > 25000 | 817 | 184 | – | – | – | –
7 | O=C(Nc1nc([C@H]2CCC(=O)N2c2ccccc2)cs1)c1cccn1Cc1ccncc1 [Compound A319] | 1310 | 2720 | > 25000 | > 25000 | 16000 | 1840 | – | – | – | –
8 | O=C(Nc1nc([C@@H]2CCC(=O)N2Cc2ccccc2)cs1)c1cccn1Cc1ccncc1 [Compound A320] | 10400 | > 25000 | > 25000 | > 25000 | > 25000 | > 25000 | – | – | – | –
9 | O=C(Nc1nc([C@H]2C[C@@H](O)CN2c2ccccc2)cs1)c1cccn1Cc1ccncc1 [Compound A321] | 215 | 902 | 9730 | > 25000 | 4170 | 948 | – | – | – | –
10 | CC(C)(C)[Si](O[C@@H]1C[C@H](c2csc(NC(=O)c3cccn3Cc3ccncc3)n2)N(c2ccccc2)C1)(c1ccccc1)c1ccccc1 [Compound A322] | – | – | 315 | > 25000 | – | – | 3 | 9 | 14 | 9
11 | CC(C)(C)[Si](O[C@H]1C[C@H](c2csc(NC(=O)c3cccn3Cc3ccncc3)n2)N(c2ccccc2)C1)(c1ccccc1)c1ccccc1 [Compound A323] | – | – | 118 | > 25000 | – | – | 7 | 13 | 11 | 10
12 | O=C(Nc1nc([C@H]2CC[C@H]2c2ccccc2)cs1)c1cccn1Cc1ccncc1 [Compound A324] | 289 | 582 | 11300 | > 25000 | 3010 | 475 | – | – | – | –
13 | CO[C@@H]1C[C@H](c2csc(NC(=O)c3cccn3Cc3ccncc3)n2)N(c2ccccc2)C1 [Compound A325] | 26 | 46 | 3620 | > 25000 | 206 | 58 | – | – | – | –
14 | O=C(Nc1nc([C@H]2C[C@H](O)CN2c2ccccc2)cs1)c1cccn1Cc1ccncc1 [Compound A326] | 59 | 201 | 5000 | > 25000 | 308 | 126 | – | – | – | –
15 | O=C(Nc1nc(/C=C/c2ccc(OC(F)(F)F)cn2)cs1)c1cccn1Cc1ccncc1 [Compound A327] | 16 | 469 | 15100 | > 25000 | 4490 | 999 | – | – | – | –
16 | O=C(Nc1nc([C@H]2CCCN2c2ccc3c(c2)OC(F)(F)O3)cs1)c1cccn1Cc1ccncc1 [Compound A328] | 9 | 12 | 381 | 16500 | 105 | 14 | – | – | – | –

Continued, in another order:

Row | IC50 [1, 7] [nM] | IC50 [2, 8] [nM] | EC50 [3] [nM] | EC50 [4] [nM] | IC50 [5, 9] [nM] | IC50 [6, 10] [nM] | SMILES | IC50 [1, 11] [nM] | IC50 [2, 12] [nM] | IC50 [5, 13] [nM] | IC50 [6, 14] [nM]
17 | 202 | 342 | 22800 | > 25000 | 3160 | 739 | O=C(Nc1nc([C@H]2C[C@H](Oc3ccccc3)C2)cs1)c1cccn1Cc1ccncc1 [Compound A329] | – | – | – | –
18 | 218 | 475 | 19200 | > 25000 | 3920 | 1020 | O=C(Nc1nc([C@H]2C[C@@H](Oc3ccccc3)C2)cs1)c1cccn1Cc1ccncc1 [Compound A330] | – | – | – | –
19 | 64 | 82 | 4720 | > 25000 | 423 | 178 | O=C(Nc1nc([C@H]2CC[C@@H]2c2ccccc2)cs1)c1cccn1Cc1ccncc1 [Compound A331] | – | – | – | –
20 | 64 | 97 | 4290 | > 25000 | 516 | 82 | O=C(Nc1nc([C@@H]2CCCCN2c2ccccc2)cs1)c1cccn1Cc1ccncc1 [Compound A332] | – | – | – | –
21 | 21 | 42 | 1480 | > 25000 | 165 | 27 | CO[C@H]1C[C@H](c2csc(NC(=O)c3cccn3Cc3ccncc3)n2)N(c2ccccc2)C1 [Compound A333] | – | – | – | –
22 | 80 | 138 | 6470 | 9050 | 775 | 110 | CO[C@H]1CCN(c2ccccc2)[C@H]1c1csc(NC(=O)c2cccn2Cc2ccncc2)n1 [Compound A334] | – | – | – | –
23 | 130 | 411 | 11400 | > 25000 | 3010 | 752 | COc1cnc([C@@H]2C[C@H]2c2csc(NC(=O)c3cccn3Cc3ccncc3)n2)c(F)c1 [Compound A335] | – | – | – | –
24 | 374 | 835 | 17900 | > 25000 | 1350 | 334 | O=C(Nc1nc([C@H]2CCN2c2ccccc2)cs1)c1cccn1Cc1ccncc1 [Compound A336] | – | – | – | –
25 | 190 | 548 | 21500 | > 25000 | 2850 | 379 | O=C(Nc1nc([C@@H]2COCCN2c2ccccc2)cs1)c1cccn1Cc1ccncc1 [Compound A337] | – | – | – | –
26 | 205 | 264 | 14800 | > 25000 | 1850 | 345 | C[C@]1(c2csc(NC(=O)c3cccn3Cc3ccncc3)n2)CCCN1c1ccccc1 [Compound A338] | – | – | – | –
27 | 18 | 29 | 1310 | > 25000 | 226 | 13 | O=C(Nc1nc([C@H]2CC(F)(F)CN2c2ccccc2)cs1)c1cccn1Cc1ccncc1 [Compound A339] | – | – | – | –
28 | > 25000 | > 25000 | > 25000 | > 25000 | > 25000 | > 25000 | CC(C)OC(C)(C)c1csc(NC(=O)c2ccccc2N2CCOCC2)n1 [Compound A340] | – | – | – | –
29 | 47 | > 25000 | > 25000 | > 25000 | > 25000 | > 25000 | N#Cc1ccc(/C=C/c2csc(NC(=O)c3cccn3Cc3ccncc3)n2)nc1 [Compound A341] | – | – | – | –
30 | 68 | 952 | 23700 | > 25000 | > 25000 | 1400 | O=C(Nc1nc(/C=C/c2ccc(F)cn2)cs1)c1cccn1Cc1ccncc1 [Compound A342] | – | – | – | –

Reference: US20220153732A1, “PROTEIN SECRETION INHIBITORS” (KEZAR LIFE SCIENCES, priority 2019, published 2022)
